Reference: US5817677A, “5-membered heterocycles, medicaments containing these compounds, their use and processes for their preparation” (priority 1995, dated 1998)
Counter-ions that a name gives are not always drawn.

How the values were obtained:
platelet aggregation = experiment: Inhibition of collagen-induced platelet aggregation (Born and Cross) in platelet-rich plasma; assay type: cell-based, human (platelet-rich plasma of healthy subjects); settings: human platelet-rich plasma, 10 minutes preincubation at 37° C., 50% change in optical density
Description: 2. Antithrombotic effect Platelets aggregation is measured by the method of Born and Cross (J. Physiol. 170, 397 (1964)) in platelet-rich plasma of healthy subjects. To inhibit clotting, the blood is treated with sodium citrate, 3.14% in the volume ratio 1:10. Collagen-induced aggregation The course of the decrease in the optical density of the platelet suspension is measured and recorded photometrically after addition of the aggregation-inducing substance. From the angle of inclination of the density curve, the aggregation rate is deduced. The point of the curve at which the greatest light transmission exists is used to calculate the optical density. The amount of collagen is selected to be as low as possible, but in such a way that a reaction curve with an irreversible course results. Commercially available collagen from Hormonchemie, Munich, is used. Before the addition of collagen, the plasma is in each case incubated at 37° C. with the substance for 10 minutes. From the measurements obtained, an EC50 is determined graphically which relates to a 50% change in the optical density in the sense of an inhibition of aggregation.

human platelets = experiment: Inhibition of the binding of ^3 H-BIBU 52 to human platelets (fibrinogen binding test); settings: ^3 H-BIBU 52 5 nM, human platelet-rich plasma, room temperature, 20 minutes; 50% inhibition of binding
Description: 1. Inhibition of the binding of ^3 H-BIBU 52 to human platelets
The free and bound ligand is separated by centrifugation and quantitatively determined by scintillation counting. From the measurements, the inhibition of ^3 H-BIBU 52 binding by the test substance is determined.
For this purpose, donor blood is taken from an anticubital vein and anticoagulated with trisodium citrate (final concentration 13 mM). The blood is centrifuged at 170×g for 10 minutes and the supernatant platelet-rich plasma (PRP) is removed. The remaining blood is intensely centrifuged off once more to obtain plasma. The PRP is diluted 1:10 with autologous plasma. […] are incubated with […] of physiological saline solution, 100 ml of test substance solution, 50 ml of ^14 C-sucrose (3700 Bq) and 50 ml of ^3 H-BIBU-52 (final concentration: 5 nM at room temperature for 20 minutes. To measure the non-specific binding, instead of the test substance 5 ml of BIBU 52 (final concentration: […]) are employed. The samples are centrifuged at 10,000×g for 20 seconds and the supernatant is removed. 100 ml of this are measured to determine the free ligand. The pellet is dissolved in 500 ml of 0.2N NaOH, and 450 ml are treated with 2 ml of scintillator and 25 ml of 5N Hcl and measured. The residual plasma still remaining in the pellet is determined from the ^14 C content, the bound ligand from ^3 H-measurement.

COC(=O)COc1ccc(NC(=O)c2sc(C3CCNCC3)nc2C)cc1 [2(3), 5-[[4-(Methoxycarbonylmethoxy)phenyl]aminocarbonyl]-4-methyl-2-(4-piperidyl)-1,3-thiazole hydrobromide] was tested, and the EC50 (platelet aggregation) was 140 nM and the IC50 (human platelets) was 300 nM.

Work on O=C(O)CO[C@H]1CC[C@H](NC(=O)c2cnc(C3CCNCC3)s2)CC1 [2(12), 5-[[trans-4-(Carboxymethoxy)cyclohexyl]aminocarbonyl]-2-(4-piperidyl)-1,3-thiazole hydrobromide] yielded an EC50 (platelet aggregation) of 140 nM and an IC50 (human platelets) of 72 nM.

Cc1nc(C2CCNCC2)sc1C(=O)Nc1ccc(OCC(=O)O)cc1 [4(3), 5-[[4-(Carboxymethoxy)phenyl]aminocarbonyl]-4-methyl-2-(4-piperidyl)-1,3-thiazole hydrobromide] showed an EC50 (platelet aggregation) of 130 nM and an IC50 (human platelets) of 45 nM.

O=C(O)COc1ccc(NC(=O)c2nnc(C3CCNCC3)s2)cc1 [4(6), 5-[[4-(Carboxymethoxy)phenyl]aminocarbonyl]-2-(4piperidyl)-1,3,4-thiadiazole hydrochloride] was tested, and the EC50 (platelet aggregation) was 170 nM and the IC50 (human platelets) was 64 nM.

Compound O=C(/C=C/c1cn(C2CCNCC2)cn1)N[C@H]1CC[C@H](C(=O)O)CC1 [4(8), 4-[trans-2-[(trans-4-Carboxycyclohexyl)aminocarbonyl]-ethenyl]-1-(4-piperidyl)imidazole dihydrochloride] has an EC50 (platelet aggregation) of 1800 nM and an IC50 (human platelets) of 2500 nM.

In the case of O=C(O)COc1ccc(NC(=O)c2cnc(C3CCNCC3)s2)cc1 [4(19), 5-[[4-(Carboxymethoxy)phenyl]aminocarbonyl]-2-(4-piperidyl)-1,3-thiazole hydrate], the EC50 (platelet aggregation) is reported as 100 nM and the IC50 (human platelets) is reported as 38 nM.

Work on O=C(O)CC[C@H]1CC[C@H](NC(=O)c2cnc(C3CCNCC3)s2)CC1 [4(20), 5-[[trans-4-(2-Carboxyethyl)cyclohexyl]aminocarbonyl]-2-(4-piperidyl)-1,3-thiazole hydrobromide] yielded an EC50 (platelet aggregation) of 120 nM and an IC50 (human platelets) of 63 nM.

For O=C(N[C@H]1CC[C@H](C(=O)O)CC1)c1cn(CCC2CCNCC2)cn1 [4(27), 4-[[trans-4-Carboxycyclohexyl]aminocarbonyl]-1-[2-(4-piperidyl)ethyl]imidazole dihydrochloride], the EC50 (platelet aggregation) was 280 nM and the IC50 (human platelets) was 190 nM.

CS(=O)(=O)N(CC(=O)O)[C@H]1CC[C@H](C(=O)Nc2cn(C3CCNCC3)cn2)CC1 [5(2), 4-[[trans-4-(N-Carboxymethyl-N-methanesulphonylamino)-cyclohexyl]carbonylamino]-1-(4-piperidyl)imidazole dihydrochloride] showed an EC50 (platelet aggregation) of 3800 nM and an IC50 (human platelets) of 1600 nM.

Compound O=C(O)CC[C@H]1CC[C@H](NC(=O)c2cn(C3CCNCC3)cn2)CC1 [Example 4, 4-[[trans-4-(2-Carboxyethyl)cyclohexyl]aminocarbonyl]-1-(4-piperidyl)imidazole dihydrochloride] has an EC50 (platelet aggregation) of 160 nM and an IC50 (human platelets) of 120 nM.
